Key:
[1] = tested on: human multiple myeloma cell line, U266; test: Trypan blue cell viability and viable cell count, U266; format: cell-based; conditions: vardenafil 5 μM, EGCG 5 μM added after 3 hours, 96 hours
Experimental: A human multiple myeloma cell line, U266, was subcultured in an RPMI 1640 medium (NISSUI PHARMACEUTICAL Co. LTD., Tokyo) supplemented with 10% fetal calf serum (FCS) (BIOLOGICAL INDUSTRIES) at 37° C. under vapor-saturated 5% CO2 conditions. The cells were cultured in the logarithmic growth phase. A human acute myeloid leukemia cell line, HL60, was subcultured in an RPMI 1640 medium supplemented with 10% fetal calf serum (FCS) at 37° C. under vapor-saturated 5% CO2 conditions. The cells were cultured in the logarithmic growth phase. […]
(§1) The plate was returned to the incubator immediately after the addition of EGCG, followed by culturing for 96 hours. […] After 10 minutes, the number of the cells was counted with a hemocytometer (Becton, Dickinson and Company). Unstained cells were deemed as viable cells, and the cell viability was determined as a ratio of the number of unstained cells in trypan blue staining to the total number of cells. […]

[2] = tested on: human multiple myeloma cell line, U266; test: Involvement of 67LR (anti-67LR antibody MLuc5) in cell-killing and cytostatic activity, U266; format: cell-based; conditions: U266, 96-well; vardenafil 5 μM, EGCG 5 μM; 96 hours; without anti-67LR antibody (isotype control mouse IgM)
Experimental: A trypan blue staining solution was prepared by suspending trypan blue in PBS at a concentration of 1% and was used in investigation of the anti-cancer activity of a combination of EGCG and vardenafil by trypan blue assay. The PBS used was prepared by dissolving 8.0 g of NaCl, 0.2 g of KCl, 1.15 g of Na2HPO4, and 0.2 g of KH2PO4 in 1 L of ultrapure water, followed by autoclave sterilization.
A human multiple myeloma cell line, U266, and a human acute myeloid leukemia cell line, HL60, adjusted to be 5×10^4 cells/mL (U266) and 1×10^4 cells/mL (HL60), respectively, in an RPMI 1640 medium supplemented with 1% FCS were seeded in a 96-well plate (Falcon Co., Ltd.). Vardenafil was added thereto at a final concentration of 5 μM. Immediately after the addition, an anti-67LR monoclonal antibody, MLuc5 (Abcam PLC), was added thereto at a final concentration of 20 μg/mL. In the group of adding an isotype control antibody, mouse IgM (Cosmo Bio Co., Ltd., Tokyo) was added at a final concentration of 20 μg/mL. […]
as §1, with “hemocytometer.” for “hemocytometer (Becton, Dickinson and Company).”

Substance: (−)-epigallocatechin-3-O-gallate [EGCG]
- cell viability (cell-killing activity) [1]: any cytotoxicity was not observed
- cell viability (cell-killing activity) [2]: any cytotoxicity was not observed
